These results are taken from ChEMBL document CHEMBL1201862, “PubChem BioAssay data set” (2004).

What all share (format): functional
The target in test [1] is T1, Sentrin-specific protease 8 (Homo sapiens, UniProt Q96LD8).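 Note: luminescence read-out of SENP8 inhibition, dose-response confirmation following an ultra-high-throughput screen.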
T1 sequence (Q96LD8 whole entry): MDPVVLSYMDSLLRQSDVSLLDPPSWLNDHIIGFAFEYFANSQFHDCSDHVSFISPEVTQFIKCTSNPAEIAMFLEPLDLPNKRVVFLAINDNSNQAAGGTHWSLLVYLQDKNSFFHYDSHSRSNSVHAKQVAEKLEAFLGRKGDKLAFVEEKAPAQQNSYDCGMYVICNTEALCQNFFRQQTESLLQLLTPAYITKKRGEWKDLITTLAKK

The next test concerns the target T2, Hexokinase HKDC1 (Homo sapiens, UniProt Q2TB90).
T2 sequence (Q2TB90 whole entry): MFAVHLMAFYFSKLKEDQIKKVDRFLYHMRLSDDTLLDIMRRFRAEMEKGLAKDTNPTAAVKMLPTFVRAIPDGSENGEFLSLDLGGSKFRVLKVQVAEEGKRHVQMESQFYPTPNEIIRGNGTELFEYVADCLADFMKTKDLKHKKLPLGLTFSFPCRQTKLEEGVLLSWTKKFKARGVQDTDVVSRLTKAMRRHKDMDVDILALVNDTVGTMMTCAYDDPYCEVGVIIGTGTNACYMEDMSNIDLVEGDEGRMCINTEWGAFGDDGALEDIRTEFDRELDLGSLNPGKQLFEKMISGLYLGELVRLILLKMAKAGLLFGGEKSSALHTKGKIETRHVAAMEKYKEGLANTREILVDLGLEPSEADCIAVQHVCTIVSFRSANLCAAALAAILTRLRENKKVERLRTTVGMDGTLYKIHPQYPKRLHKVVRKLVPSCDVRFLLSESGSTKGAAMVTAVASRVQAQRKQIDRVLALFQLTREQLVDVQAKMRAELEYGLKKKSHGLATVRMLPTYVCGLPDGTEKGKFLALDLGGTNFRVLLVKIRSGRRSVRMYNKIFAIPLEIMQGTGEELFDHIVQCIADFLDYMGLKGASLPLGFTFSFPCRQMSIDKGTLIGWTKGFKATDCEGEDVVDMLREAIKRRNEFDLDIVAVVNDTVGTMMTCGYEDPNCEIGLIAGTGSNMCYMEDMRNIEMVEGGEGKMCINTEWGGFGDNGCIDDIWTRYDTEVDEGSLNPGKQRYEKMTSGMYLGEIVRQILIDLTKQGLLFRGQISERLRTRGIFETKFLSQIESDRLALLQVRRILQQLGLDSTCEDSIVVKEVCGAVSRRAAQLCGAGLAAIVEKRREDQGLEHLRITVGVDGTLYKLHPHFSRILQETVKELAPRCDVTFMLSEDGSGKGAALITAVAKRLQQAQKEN
Put plainly: HKDC1 hexokinase inhibitors, dose response, biochemical, W721R variant (AID 504729).

The target of test [2] is T3, Endoribonuclease toxin MazF (Escherichia coli K-12, UniProt P0AE70).
T3 sequence (P0AE70 whole entry): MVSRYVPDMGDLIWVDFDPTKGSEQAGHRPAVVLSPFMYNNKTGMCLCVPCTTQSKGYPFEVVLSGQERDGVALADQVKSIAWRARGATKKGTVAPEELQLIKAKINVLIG
Put plainly: MazF endoribonuclease activators, SAR follow-up, biochemical, fluorescence, single-stranded RNA substrate (AID 588603).

Test [3] deals with T4, Tyrosine-protein phosphatase non-receptor type 22 (Homo sapiens, UniProt Q9Y2R2).
T4 sequence (Q9Y2R2 whole entry): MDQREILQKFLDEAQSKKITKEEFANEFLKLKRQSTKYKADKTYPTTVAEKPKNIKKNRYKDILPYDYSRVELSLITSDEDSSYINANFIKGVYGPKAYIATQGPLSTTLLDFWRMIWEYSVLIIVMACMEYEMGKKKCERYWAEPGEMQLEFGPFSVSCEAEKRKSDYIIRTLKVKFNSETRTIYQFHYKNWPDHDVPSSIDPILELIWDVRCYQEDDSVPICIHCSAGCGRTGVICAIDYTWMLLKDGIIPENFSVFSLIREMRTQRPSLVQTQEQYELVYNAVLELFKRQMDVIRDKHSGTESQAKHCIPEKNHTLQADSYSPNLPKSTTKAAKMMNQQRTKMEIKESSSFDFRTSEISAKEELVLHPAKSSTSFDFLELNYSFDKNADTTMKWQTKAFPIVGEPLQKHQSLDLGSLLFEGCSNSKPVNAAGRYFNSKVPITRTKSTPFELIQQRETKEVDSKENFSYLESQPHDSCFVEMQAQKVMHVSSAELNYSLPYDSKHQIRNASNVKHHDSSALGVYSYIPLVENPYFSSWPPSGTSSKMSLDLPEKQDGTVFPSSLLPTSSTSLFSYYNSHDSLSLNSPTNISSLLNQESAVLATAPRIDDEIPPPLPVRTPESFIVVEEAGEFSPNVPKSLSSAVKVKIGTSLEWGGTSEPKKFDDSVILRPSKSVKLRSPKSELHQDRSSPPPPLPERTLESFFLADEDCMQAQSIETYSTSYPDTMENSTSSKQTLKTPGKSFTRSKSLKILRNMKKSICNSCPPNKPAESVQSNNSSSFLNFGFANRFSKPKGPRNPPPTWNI

The source made the active and inactive calls. Bounds are passed on as bounds.

The term IC50 denotes the midpoint of a concentration-inhibition curve. A word on the EC50: it is the concentration that produces a half-maximal response.

As for `Oc1nc(Nc2ccccc2Cl)cc2ccccc12`, the 50% inhibitory concentration (IC50) in test [1] is 4.23 µM (active). As to `O=C1C=C(c2c(O)ccc3ccccc23)c2ccccc2C1=O`, the IC50 at Hexokinase HKDC1 was 2.47 µM (active). The EC50 in test [2] is > 99 µM (inactive). On to `Cc1nc2c(=O)n(C)c(=O)nc-2n(C)n1`, for which the IC50 in test [3] was < 1.24 µM (active).
